Series [1] concerns 5-HT1A receptors. To be noted: background statement; cited from earlier work.
Series [2] deals with β-adrenergic receptors. Put plainly: Radioligand binding, β-adrenergic receptors labeled by ^3 H-dihydroalprenolol (^3 H-DHA), rat cortex. The following applies: for IC50: mean ± standard error of 3-4 experiments, read-out: Drug Potency (IC50) β-adrenergic (^3 H-DHA); for potency at β-adrenergic receptors relative to 5-HT1A (in words): labeled by ^3 H-DHA. As to the method:
(§1) Radioligand binding studies were performed described in Peroutka et al., Molecular Pharmacology (1979) 16:687-699. Briefly, rat brain were purchased from Pel-Freez (Roger, AR). On the day of study, the samples were thawed in Tris-HCl buffer. Tissues were homogenized in 20 volumes Tris-HCl buffer (pH 7.7 at 25° C.) using a Brinkmann Polytron and then centrifuged in an IEC B20A centrifuge at 49,000×g for 10 min. The supernatant was discarded, and the pellet was resuspended in the same volume of Tris-HCl buffer and incubated at 37° C. for 10 min prior to a second centrifugation at 49,000×g for 10 min. The final pellet was resuspended in 80 volumes of Tris-HCl buffer containing 10 μM pargyline, 4 mM calcium chloride and 0.1% ascorbic acid. The suspensions were immediately used in the binding assay. […] Following incubation at 25° C. for 30 minutes, the assays were rapidly filtered under vacuum through #32 glass filters (Schleicher and Scheull: Keene, NH) with two 5 ml washes using 50 mM Tris-HCl buffer. Radioactivity was measured by liquid scintillation spectroscopy in ml of 3a70 Counting Cocktail (Research Products International: Mt. Prospect, IL) at 54% efficiency. […] All drugs were diluted and dissolved in assay buffer.
(§2) Each experiment was performed in triplicate and repeated 3 to 6 times.

The test system of series [3] is non-5-HT1A. Put plainly: Radioligand binding, non-5-HT1A sites labeled by ^3 H-5-HT + 100 nM 8-OH-DPAT, rat cortex. To be noted: for potency at non-5-HT1A binding sites (in words) / IC50: rat cortex; for IC50: read-out: Drug Potency (IC50) non-5-HT1A (^3 H-5-HT + 100 nM 8-OH-DPAT), mean ± standard error of 3-4 experiments. As to the method: as §1, with “Briefly,” for “Radioligand binding studies were performed described in Peroutka et al., Molecular Pharmacology (1979) 16:687-699. Briefly,”, “buffer.” for “buffer. Radioactivity was measured by liquid scintillation spectroscopy in ml of 3a70 Counting Cocktail (Research Products International: Mt. Prospect, IL) at 54% efficiency.”
as §2

The nature of series [4]: Stability of Compounds 8-11 on storage. To be noted: methanol; 10 mg/ml, 20° C., 'too months'; read-out: decomposition in methanolic solution. Format: physicochemical. As to the method: Methanolic solutions (10 mg/ml) are suitable storage forms.
For series [5], the target named is T1, 5-HT1A (Rattus norvegicus, UniProt P19327).
T1 construct: rat brain were purchased from Pel-Freez; tissue Pel-Freez (Roger, AR); host or cells: rat brain (cortex) membranes
T1 sequence (P19327 1-422): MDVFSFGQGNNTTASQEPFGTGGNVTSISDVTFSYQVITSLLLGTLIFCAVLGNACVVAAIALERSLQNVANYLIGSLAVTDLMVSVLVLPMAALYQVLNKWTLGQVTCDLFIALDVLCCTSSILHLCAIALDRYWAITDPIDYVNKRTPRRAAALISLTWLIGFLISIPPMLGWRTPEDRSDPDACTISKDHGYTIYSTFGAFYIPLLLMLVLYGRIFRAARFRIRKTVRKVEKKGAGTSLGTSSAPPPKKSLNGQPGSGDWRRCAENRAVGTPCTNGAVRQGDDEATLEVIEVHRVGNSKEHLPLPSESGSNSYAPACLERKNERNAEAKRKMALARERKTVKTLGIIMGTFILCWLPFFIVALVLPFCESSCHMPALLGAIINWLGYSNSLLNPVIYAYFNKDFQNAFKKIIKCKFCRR
The experiment in a line: Radioligand binding, 5-HT1A sites labeled by ^3 H-8-OH-DPAT, rat cortex. To be noted: for IC50: mean ± standard error of 3-4 experiments. The method, then:
as §1, §2

Series [6] concerns the target T2, 5-HT2 (Rattus norvegicus, UniProt P14842).
T2 construct: rat brain were purchased from Pel-Freez; tissue Pel-Freez (Roger, AR); host or cells: rat brain (cortex) membranes
Put plainly: Radioligand binding, 5-HT2 sites labeled by ^3 H-spiperone, rat cortex. The following applies: for IC50: mean ± standard error of 3-4 experiments. The method, then: as §1, §2

T2 sequence (P14842 whole entry): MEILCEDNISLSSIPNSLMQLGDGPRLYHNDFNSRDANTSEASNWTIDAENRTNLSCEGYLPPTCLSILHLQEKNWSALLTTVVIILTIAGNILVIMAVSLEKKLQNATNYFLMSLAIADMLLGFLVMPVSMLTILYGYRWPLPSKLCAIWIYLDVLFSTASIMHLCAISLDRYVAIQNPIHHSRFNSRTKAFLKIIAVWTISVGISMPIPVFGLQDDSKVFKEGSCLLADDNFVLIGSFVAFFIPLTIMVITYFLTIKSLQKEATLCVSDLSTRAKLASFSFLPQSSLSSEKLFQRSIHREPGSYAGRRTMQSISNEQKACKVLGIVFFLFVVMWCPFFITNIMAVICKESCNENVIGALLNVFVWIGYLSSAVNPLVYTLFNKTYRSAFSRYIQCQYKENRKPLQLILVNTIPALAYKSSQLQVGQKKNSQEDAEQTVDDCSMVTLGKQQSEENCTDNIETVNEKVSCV

With `CC(C)NC[C@H](O)COc1cccc2ccccc12` [(-)-propranolol], the “inhibition of [^3 H]-8-OH-DPAT binding to 5-HT1A receptors (in words)” value (“inhibition of [^3 H]-8-OH-DPAT binding” below) in series [1] is listed as “potent inhibitors”.
In the case of `O=C1CC2(CCCC2)CC(=O)N1CCCCN1CCN(c2ncccn2)CC1` [Buspirone], the “inhibition of [^3 H]-8-OH-DPAT binding” value in series [1] was “potent inhibitors”.
For `CC(C)(NC(=O)CBr)[C@H]1CC[C@@](C)(NCC(O)COc2cccc3[nH]ccc23)CC1` (some centres unmarked) [Compound 8, N^8-(Bromoacetyl)-N^1-[3-(4-indolyloxy)-2-hydroxypropyl]-(Z)-1,8-diamino-p-menthane], the IC50 (in general, the concentration that inhibits the measured activity by half) in series [2] is 1.3 ± 0.2 nM. Also, in series [3], the “potency at non-5-HT1A binding sites (in words)” value was “least potent” and the IC50 is 140 ± 70 nM. The degraded at 1460 h in series [4] was under 5%. In series [5], the “potency at the 5-HT1A binding site (in words)” value is “similar, though less potent, affinity” and the IC50 stood at 6.3 ± 2 nM. In addition, in series [6], the “potency at 5-HT2 binding sites (in words)” value was “least potent” and the half-inhibitory concentration (IC50) turned out to be 3100 ± 1000 nM.
Regarding `CC(C)(NCC(O)COc1cccc2[nH]ccc12)[C@H]1CC[C@@](C)(NC(=O)CBr)CC1` (some centres unmarked) [Compound 9, N^1 (Bromoacetyl)-N^8-[3-(4-indolyloxy)-2-hydroxypropyl]-(Z)-1,8-diamino-p-menthane], in series [2], the “potency at β-adrenergic receptors relative to 5-HT1A (in words)” value is on record as “approximately an order of magnitude less potent” and the half-maximal inhibitory concentration (IC50) amounted to 5.6 ± 0.5 nM. In addition, in series [3], the “potency at non-5-HT1A binding sites (in words)” value is “approximately less potent” and the concentration for half-maximal inhibition (IC50) came out at 430 ± 200 nM. In series [4], the degraded at 1460 h was under 5%. In series [5], the “potency at the 5-HT1A binding site (in words)” value is “extremely potent” and the concentration for half-maximal inhibition (IC50) was 0.71 ± 0.02 nM. Besides, in series [6], the “potency at 5-HT2 binding sites (in words)” value is listed as “approximately less potent” and the IC50 was 4000 ± 500 nM.
For `CC(C)(NC(=O)CBr)[C@H]1CC[C@@](C)(NCC(O)COc2cccc3[nH]c(C#N)cc23)CC1` (some centres unmarked) [Compound 10, N^8-(Bromoacetyl)-N1-[3-[(2-cyano-4-indolyl)oxy]-2-hydroxYpropyl]-(Z)-1,8-diamino-p-menthane], the degraded at 1460 h in series [4] is under 5%.
`CC(C)(NCC(O)COc1cccc2[nH]c(C#N)cc12)[C@H]1CC[C@@](C)(NC(=O)CBr)CC1` (some centres unmarked) [Compound 11]: in series [2], the IC50 came to 1.1 ± 0.02 nM. In series [3], the “potency at non-5-HT1A binding sites (in words)” value is given as “least potent” and the half-inhibitory concentration (IC50) was 410 ± 200 nM. The degraded at 1460 h in series [4] was under 5%. Besides, in series [5], the “potency at the 5-HT1A binding site (in words)” value is given as “similar, though less potent, affinity” and the concentration for half-maximal inhibition (IC50) worked out at 5.3 ± 2 nM. Further, in series [6], the “potency at 5-HT2 binding sites (in words)” value is given as “least potent” and the 50% inhibitory concentration (IC50) came to 4400 ± 2000 nM.
For `COC(=O)/C=C/C(=O)NC(C)(C)[C@H]1CC[C@@](C)(NCC(O)COc2cccc3[nH]ccc23)CC1` (some centres unmarked) [Compound 12], in series [2], the “selectivity for β-adrenergic receptors (in words)” value is “most selective for β-adrenergic receptors” and the IC50 was 2.8 ± 0.5 nM. In series [3], the “potency at non-5-HT1A binding sites (in words)” value was “least potent” and the IC50 turned out to be 270 ± 50 nM. In series [5], the “potency at the 5-HT1A binding site (in words)” value was “similar, though less potent, affinity” and the 50% inhibitory concentration (IC50) turned out to be 31 ± 8 nM. Further, in series [6], the “potency at 5-HT2 binding sites (in words)” value is “least potent” and the concentration for half-maximal inhibition (IC50) came to 1100 ± 500 nM.
`COC(=O)/C=C/C(=O)N[C@]1(C)CC[C@H](C(C)(C)NCC(O)COc2cccc3[nH]ccc23)CC1` (some centres unmarked) [Compound 13]: in series [2], the “potency at β-adrenergic receptors relative to 5-HT1A (in words)” value is “approximately an order of magnitude less potent” and the IC50 is 10 ± 5 nM. Further, in series [3], the “potency at non-5-HT1A binding sites (in words)” value is “approximately less potent” and the concentration for half-maximal inhibition (IC50) stood at 2900 ± 800 nM. For the same molecule, in series [5], the “potency at the 5-HT1A binding site (in words)” value is listed as “extremely potent” and the 50% inhibitory concentration (IC50) is 1.2 ± 0.2 nM. Moreover, in series [6], the “potency at 5-HT2 binding sites (in words)” value was “approximately less potent” and the IC50 is 3600 ± 1000 nM.
For `CC(C)(NC(=O)C1=CC2C=CC1CC2)[C@H]1CC[C@@](C)(NCC(O)COc2cccc3[nH]ccc23)CC1` (some centres unmarked) [Compound 14], in series [2], the “selectivity for β-adrenergic receptors (in words)” value was “most selective for β-adrenergic receptors” and the IC50 was determined as 4.2 ± 2 nM. Besides, in series [3], the “potency at non-5-HT1A binding sites (in words)” value is “least potent” and the IC50 came to 46 ± 10 nM. In series [5], the “potency at the 5-HT1A binding site (in words)” value is reported as “similar, though less potent, affinity” and the IC50 was found to be 26 ± 8 nM. In series [6], the “potency at 5-HT2 binding sites (in words)” value is on record as “least potent”.
`CC(C)(NCC(O)COc1cccc2[nH]ccc12)[C@H]1CC[C@@](C)(NC(=O)C2=CC3C=CC2CC3)CC1` (some centres unmarked) [Compound 15]: in series [2], the “potency at β-adrenergic receptors relative to 5-HT1A (in words)” value is “approximately an order of magnitude less potent” and the 50% inhibitory concentration (IC50) stood at 19 ± 9 nM. Further, in series [3], the “potency at non-5-HT1A binding sites (in words)” value is reported as “approximately less potent” and the 50% inhibitory concentration (IC50) came out at 1300 ± 500 nM. In addition, in series [5], the “potency at the 5-HT1A binding site (in words)” value is recorded as “extremely potent” and the 50% inhibitory concentration (IC50) was 1.1 ± 0.1 nM. Also, the “potency at 5-HT2 binding sites (in words)” value in series [6] is listed as “approximately less potent”.
`O=C1c2ccccc2S(=O)(=O)N1CCCCN1CCN(c2ncccn2)CC1` [TVX Q 7821]: the “inhibition of [^3 H]-8-OH-DPAT binding” value in series [1] was “potent inhibitors”.
With `NCCc1c[nH]c2ccc(O)cc12` [^3 H-5-HT, 5-Hydroxytryptamine], in series [3] (used for Ki calculation), the Kd (as a rule, a measure of binding affinity in units of concentration) is 3.2 nM.
As for `CN1CCC(=C2c3ccccc3C=Cc3ccccc32)CC1` [cyproheptadine], the “inhibition of [^3 H]-8-OH-DPAT binding” value in series [1] is listed as “potent inhibitors”.
With `CN1CCC(=C2c3ccccc3CCc3sccc32)CC1` [pizotifen], in series [1], the “inhibition of [^3 H]-8-OH-DPAT binding” value is reported as “potent inhibitors”.
